Columns and labels:
[1] = system: SuHx-mediated (SU5416 plus hypoxia) pulmonary hypertension; assay: SuHx (SU5416 plus hypoxia) rat model of PAH; format: in vivo, male Sprague Dawley rats; conditions: for decrease in Fulton's Index (RV hypertrophy measurement) / decrease in PVR Index / decrease in RVSP / decrease in mPAP: normalized to vehicle (1) and normal controls (0), day 49, after 4 weeks of treatment, Seralutinib 15 mg/kg inhalation BID and/or Sotatercept (as RAP-011) 5 mg/kg SC 2x/week; for lung histology (hematoxylin and eosin), pulmonary vessels: representative images, FIG. 2
Protocol: PAH was induced in animal by a administering a single injection SU5416 (20 mg/kg) on day 0, followed by exposure of animals to hypoxia (10% oxygen) for 21 days. SuHx rats were divided in four groups and treated with i) Control: Seralutinib vehicle inhalation+Sotatercept vehicle injection (grey bar) or ii) Seralutinib 15 mg/kg, by inhalation, twice daily+Sotatercept vehicle, subcutaneous injection, twice a week (bar with horizontal pattern) or iii) Sotatercept 5 mg/kg subcutaneous injection, twice a week+Seralutinib vehicle, by inhalation, twice daily (bar with vertical line pattern) or iv) Seralutinib 15 mg/kg, by inhalation, twice daily+Sotatercept 5 mg/kg subcutaneous injection, twice a week (white bar); normoxia animals were used a healthy controls. Bar graph showing individual normalized data point for (A) Right ventricular systolic pressure (RVSP) (FIG. 1A), (B) mean pulmonary artery pressure (mPAP) (FIG. 1B), (C) right ventricular hypertrophy measured by fulton's index (FIG. 1C), and PVR index (FIG. 1D).
SuHx-mediated (SU5416 plus hypoxia) pulmonary hypertension was induced in male Sprague Dawley rats (see “Inhibition of the VEGF receptor 2 combined with chronic hypoxia causes cell death-dependent pulmonary endothelial cell proliferation and severe pulmonary hypertension”, Taraseviciene-Stewart et. al., FASEB J, 2001, 15, 427-438 and “TORREY, a Phase 2 study to evaluate the efficacy and safety of inhaled seralutinib for the treatment of pulmonary arterial hypertension”, Frantz R P, et. al., Pulmonary Circulation 2021; 11(4), 1-7). Semaxanib (SU5416) was administered to rats weighing 200-250 g as a single subcutaneous injection (20 mg/kg). Rats were housed for 3 weeks in 10% oxygen and subsequently re-exposed to normoxia during 4-week treatment period.
Rats underwent treatment for four weeks as described above, with treatment starting on day 22, after disease induction. After 4 weeks of treatment, the following parameters were evaluated: right ventricular systolic pressure (RVSP); Fulton index (weight ratio of right ventricle to the left ventricle and septum); and mean pulmonary arterial pressure (mPAP).
Animals from (Group 2-5) received a single subcutaneous injection of SU5416 (20 mg/kg) on Day 0 and exposed to hypoxia (10% O2) for 21 days followed by 4 weeks of normoxia. Group 1 animals (healthy group) remained in cages exposed to ambient oxygen (normoxic) levels for 49 days. Food and water were given ad libitum.
Treatment with inhaled seralutinib or vehicle, RAP-011 or mIgG2A was as described in Table 2.
Briefly, treatment with the aerosolized Seralutinib or vehicle was administrated for 45 minutes BID for 4 weeks starting day 22 (as outlined in Table 1) at an estimated dose to 15 mg/kg/dose using a Vilnius Aerosol Generator connected to an inhalation tower. The powder concentration was continuously monitored by portable aerosol monitor. Mercer-style cascade impactor was used to perform aerodynamic particle size distribution measurements. RAP-011 or mIgG was administered at 5 mg/kg dose via SC injection twice a week for 4 weeks starting day 22 as described in Table 2.
An echocardiogram monitoring of the progression of the disease was carried out on Day 21 (before treatment) and on surgery day (Day 49) for all groups. The results of the echocardiogram, from Day 21, was used to randomize the animals to ensure that only animals with severe enough disease are selected and that there is a similar disease stage across all groups.
On day 49, after 4 weeks of treatment, end of study procedures was performed: mean pulmonary arterial pressure (mPAP) and right ventricle systolic pressure (RVSP) were measured via an intra-ventricular fluid-filled catheter from AD instruments. Mean pulmonary arterial blood pressure values by using the formula mPAP=Diastolic Pressure+(Systolic Pressure−Diastolic Pressure)/3.

[2] = system: severe PAH in two animal models; conditions: cited from earlier work
PAH patients = conditions: patients treated with standard-of-care therapies; cited from earlier work

| Compound | decrease in Fulton's Index (RV hypertrophy measurement) [1] [%] | decrease in PVR Index [1] [%] | decrease in RVSP [1] [%] | decrease in mPAP [1] [%] | lung histology (hematoxylin and eosin), pulmonary vessels [1] | efficacy compared to imatinib ([2]; preclinical study) | efficacy of inhaled seralutinib in animal models of severe PAH ([2]; two animal models, improved hemodynamics, reduced NT-proBNP, reverse remodeling) | clinical effect in PAH patients (PAH patients) |
| --- | --- | --- | --- | --- | --- | --- | --- | --- |
| COc1ccc(-c2cncc(N[C@@H](C)c3cccc(NC(=O)c4cncc(C)c4)c3)n2)cc1OC [Seralutinib, N-{3-[(1S)-1-{[6-(3,4-dimethoxyphenyl)pyrazin-2-yl]amino}ethyl]phenyl}-5-methylpyridine-3-carboxamide] | 9 | 26 | 13 | 23 | non-occluded pulmonary vessels similar to the healthy group | greater efficacy compared to imatinib | effective treatment of severe PAH | – |
| Sotatercept: soluble fusion protein composed of the extracellular domain of the activin receptor type IIA (ActR IIA) linked to the Fc portion of human IgG1 [reference compound] | 15 | 25 | 31 | 28 | non-occluded pulmonary vessels similar to the healthy group | – | – | beneficial effects |

— patent US20260042816A1, “TYROSINE KINASE INHIBITOR AND ACTIVIN TYPE 2 RECEPTOR ANTAGONIST COMBINATION THERAPY FOR TREATING PULMONARY ARTERIAL HYPERTENSION (PAH)” (GB002, INC., priority 2022, published 2026)
